Source: US20260049106A1, “PEPTIDE COMPOSITIONS AND METHODS OF USE” (ONL Therapeutics, Inc., priority 2022, published 2026)
Ends that are not written are not given here.

What was measured:
[1] = test system: Jurkat cells; assay: Cell viability preservation in vitro: cell confluence of Jurkat cells after 24-hour incubation with or without recombinant His-tagged FasL and anti-His antibody; assay type: cell-based; details: Incucyte / Vi-CELL
Method: Compounds (oligopeptides) of the present disclosure were assayed for their ability to effect cell confluence following a 24-hour incubation. Jurkat cells were incubated for 24 hours with varying concentrations of compound (i.e., 200, 66.7, 22.2, 7.4, 2.5, 0.8, 0.3, and 0.1) and with or without recombinant His-tagged FasL along with an anti-His antibody. After the 24-hour incubation, cell confluence was quantified using an S3 Incucyte Imaging System (Sartorius) and a Vi-CELL XR Cell Viability Analyzer (Beckman Coulter) and compared to controls (cells incubated in the absence of compound and cells incubated with a known Fas inhibitor).

[2] = test system: photoreceptor cells; details: cell culture experiments; separation of the retinal and retinal pigment epithelium; cited from earlier work
[3] = apparently clear solution in 20 mM citrate buffer pH 2.8, in vitro and in vivo assays; cited from earlier work

Substance | Activity (lowest concentration that prevented loss of cell confluency) [1] | photoreceptor protection [2] | loss in activity [3]
HHIYLGAVNYIY-NH2 [Compound A, reference compound] | A (cell protection at x < 1.0 μM) |  | 
H^60HIYLGAVNYIY^71 (HHIYLGAVNYIY) [Met-12] |  | photoreceptor protective | at least a fivefold loss in activity
NH2-HHIAAGAVNYIY-C(O)NH2 (H-HHIAAGAVNYIY-NH2) [Compound 6] | B (cell protection at 1.0 < x < 10.0 μM) |  | 
NH2-HHIYLGGGGGNYIY-C(O)NH2 (H-HHIYLGGGGGNYIY-NH2) [Compound 7] | B (cell protection at 1.0 < x < 10.0 μM) |  | 
NH2-HHIYLGSSSSNYIY-C(O)NH2 (H-HHIYLGSSSSNYIY-NH2) [Compound 8] | B (cell protection at 1.0 < x < 10.0 μM) |  | 
NH2-HKIYLGAVNYIY-C(O)NH2 (H-HKIYLGAVNYIY-NH2) [Compound 11] | B (cell protection at 1.0 < x < 10.0 μM) |  | 
NH2-KHIYLGAVNYIY-C(O)NH2 (H-KHIYLGAVNYIY-NH2) [Compound 10] | A (cell protection at x < 1.0 μM) |  | 
NH2-KKIYLGAVNYIY-C(O)NH2 (H-KKIYLGAVNYIY-NH2) [Compound 9] | B (cell protection at 1.0 < x < 10.0 μM) |  | 
